Reference: patent US11696912B2, “Charged ion channel blockers and methods for use” (Nocion Therapeutics, Inc., priority 2019, dated 2023)

Legend:
NaV1.7 [1] = target: T1, NaV1.7 (Homo sapiens, UniProt Q15858); assay: Nav1.7 extracellular inhibition, whole cell patch clamp (external block); type: cell-based; conditions: compound in external solution; for inhibition at 10 µM: read-out: Nav1.7 extracellular inhibition, extracellular inhibition, read-out: Nav1.7 Intracellular Inhibition; for inhibition at 30 µM: test concentration of 30 μM
T1 construct: expressed in transfected cells; host or cells: Tetracycline-inducible cell line kept under hygromycin and blasticidin selection
T1 sequence (Q15858 whole entry): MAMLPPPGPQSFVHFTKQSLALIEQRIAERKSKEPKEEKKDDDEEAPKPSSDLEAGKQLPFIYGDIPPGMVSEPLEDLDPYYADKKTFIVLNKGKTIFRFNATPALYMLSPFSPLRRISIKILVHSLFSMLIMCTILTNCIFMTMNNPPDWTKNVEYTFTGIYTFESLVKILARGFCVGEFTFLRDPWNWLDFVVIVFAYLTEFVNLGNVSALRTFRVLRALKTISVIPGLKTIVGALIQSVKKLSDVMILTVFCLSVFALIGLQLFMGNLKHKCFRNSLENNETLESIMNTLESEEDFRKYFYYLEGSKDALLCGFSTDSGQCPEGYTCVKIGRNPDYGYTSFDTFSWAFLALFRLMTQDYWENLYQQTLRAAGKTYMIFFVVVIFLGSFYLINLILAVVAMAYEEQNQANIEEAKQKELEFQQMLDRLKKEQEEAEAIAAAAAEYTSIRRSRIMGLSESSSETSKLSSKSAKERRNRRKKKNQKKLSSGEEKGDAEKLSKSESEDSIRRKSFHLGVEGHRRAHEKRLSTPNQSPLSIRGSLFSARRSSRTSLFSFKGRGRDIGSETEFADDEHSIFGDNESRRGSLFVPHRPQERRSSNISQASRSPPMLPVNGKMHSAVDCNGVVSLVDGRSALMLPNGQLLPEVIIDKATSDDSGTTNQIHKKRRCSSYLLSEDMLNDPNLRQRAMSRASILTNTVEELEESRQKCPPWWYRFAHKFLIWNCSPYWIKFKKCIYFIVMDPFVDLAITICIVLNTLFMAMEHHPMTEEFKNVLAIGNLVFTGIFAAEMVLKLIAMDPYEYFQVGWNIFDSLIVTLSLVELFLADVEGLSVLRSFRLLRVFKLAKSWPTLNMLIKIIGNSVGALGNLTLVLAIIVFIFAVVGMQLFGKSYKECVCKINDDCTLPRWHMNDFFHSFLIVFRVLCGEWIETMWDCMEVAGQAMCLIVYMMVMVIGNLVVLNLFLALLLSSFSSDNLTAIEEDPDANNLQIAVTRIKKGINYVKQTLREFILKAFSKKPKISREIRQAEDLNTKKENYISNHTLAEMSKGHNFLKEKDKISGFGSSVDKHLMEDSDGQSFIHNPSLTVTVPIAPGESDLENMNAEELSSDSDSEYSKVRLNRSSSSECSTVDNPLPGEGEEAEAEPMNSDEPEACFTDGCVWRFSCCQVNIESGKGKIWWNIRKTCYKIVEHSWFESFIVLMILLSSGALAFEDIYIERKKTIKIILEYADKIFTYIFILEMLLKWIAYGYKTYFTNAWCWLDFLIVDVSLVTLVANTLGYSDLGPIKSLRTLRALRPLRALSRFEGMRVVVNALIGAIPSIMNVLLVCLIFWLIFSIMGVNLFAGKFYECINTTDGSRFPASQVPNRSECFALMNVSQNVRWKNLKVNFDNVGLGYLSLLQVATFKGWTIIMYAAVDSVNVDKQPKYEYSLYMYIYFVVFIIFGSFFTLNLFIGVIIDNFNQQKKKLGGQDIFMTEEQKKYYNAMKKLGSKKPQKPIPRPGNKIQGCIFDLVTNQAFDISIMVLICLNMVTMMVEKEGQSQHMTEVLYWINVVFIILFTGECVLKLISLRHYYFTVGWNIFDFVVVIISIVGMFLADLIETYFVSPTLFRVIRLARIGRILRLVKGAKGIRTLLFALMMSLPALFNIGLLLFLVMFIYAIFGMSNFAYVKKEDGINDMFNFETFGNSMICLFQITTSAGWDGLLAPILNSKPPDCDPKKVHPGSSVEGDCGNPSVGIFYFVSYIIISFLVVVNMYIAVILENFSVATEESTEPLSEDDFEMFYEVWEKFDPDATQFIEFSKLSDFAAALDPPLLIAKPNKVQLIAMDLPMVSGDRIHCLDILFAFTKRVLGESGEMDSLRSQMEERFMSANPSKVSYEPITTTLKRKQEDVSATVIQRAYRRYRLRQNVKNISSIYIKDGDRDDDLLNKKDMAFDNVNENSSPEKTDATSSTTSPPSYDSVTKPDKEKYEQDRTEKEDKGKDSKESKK
Experimental: (§1) NaV1.7 was expressed upon induction with tetracycline. Cells were cultured in DMEM containing 10% dialyzed Fetal Bovine Serum (VWR, Radnor, Pa.), 1% Glutamax (VWR, Radnor, Pa.), 1% Penicillin-Streptomycin (VWR, Radnor, Pa.), 100 mg/L Hygromycin (Thermo Fisher Scientific, Waltham, Mass. and 5 mg/L Blasticidin (Alfa Aesar, Haverhill MAI Cells were grown and maintained at 37° C. in a humidified environment containing 10% CO2 in air. Cells were detached from the culture flask for passage and harvested using 0.05% Trypsin-EDTA (Thermo Fisher Scientific, Waltham, Mass.). To induce NaV1.7, cells were induced with tetracycline (0.1-1 μg/mL, IBI Scientific, Peosta, Iowa) the day before recording and plated onto 24-well plates. Cells were washed with DPBS (VWR, Radnor, Pa.), trypsinized and then triturated five times in 10 mL of growth media to break apart cell aggregates. For one 24-well plate, 2 mL of cell suspension was mixed with 23 mL of fresh growth media and 0.1-1 μg/mL tetracycline added. 1 ml of mixed media with cells was then added to each well of a 24-well plate, with a 12 mm coverslip already placed in the bottom of the well. Cells were then incubated in 37° C. and 10% CO2 overnight.
(§2) The intracellular solution contained the following (in mM) CsCl 135, NaCl 10, […], HEPES 10, MgCl2 2, adjusted to pH 7.2 with CsOH. The external solution was a normal Ringer solution containing (in mM) NaCl 155, HEPES 10, glucose 10, KCl 3.5, CaCl2 1.5, MgCl2 1 adjusted to pH 7.4 with NaOH. CsCl was from Alfa Aesar, Haverhill Mass. All other chemicals were from Sigma-Aldrich, St. Louis. Mo. In order to test the degree of internal block by test compounds the compounds were dissolved in internal solution at the indicated test concentration. […] In order to test the degree of external block by test compounds the compounds were dissolved in external solution at the indicated test concentration.
(§3) 18-24 hours after cells were induced with tetracycline, coverslips placed into a chamber filled with Normal Ringer solution at room temperature and the chamber placed on a microscope. Pipettes were pulled from borosilicate glass on a P97 puller (Sutter Instrument, Novato, Calif.) and polished with a MF-830 Microforge (Narishige International USA, Inc, Amityville, N.Y.) to have a resistance of 1.5-2.5 MΩ when filled with CsCl internal solution at room temperature. Healthy cells (those that are round and translucent with no visible blemishes) were chosen for seal formation. A seal was formed between the pipette and the cell, and a brief pulse of suction used to “break in” and establish the whole-cell configuration. The membrane potential was held at −100 mV before the voltage protocol began. Only cells with series resistance between 1.5-5 M were retained for analysis. The voltage protocol was as follows: Cells were held at −100 mV for 12 ms followed by a hyperpolarizing step to −105 mV for 12 ms to monitor the leak. Cells were then stepped back to −100 mV for 40 ms. Cells were then depolarized to −20 mV for 10 ms and returned to −100 mV for 26 ms.
Once the recording was started, the voltage protocol was run at 30 second intervals for 5 minutes to get a stable baseline. This was followed by 5 Hz stimulation of the same voltage protocol run until the end of experiment. […] The test compound was added for 5 minutes before washing out with normal Ringer's solution. Currents were recorded using PatchMaster software with Heka EPC10 (HEKA Electronics, Lambrecht, Germany). Only cells with inward current amplitudes at −20 mV between 400 pA and 4 nA were accepted. In addition, cells having leak currents greater than 10% of their current amplitudes were discarded.
The data was plotted using the Patchmaster software (HEKA Electronics, Lambrecht, Germany) and analyzed by plotting the minimum current during the voltage step to −20 mV (peak inward current) as a function of time. To determine the % block produced by test compounds applied externally the following was done. […]

[2] = PAMPA artificial lipid membrane permeability; type: in vitro ADME; conditions: pH 7.4, 4 hours incubation, GIT lipid; for Papp at 4 h, 50 µM: PAMPA
Experimental: The PAMPA assay (pION, Inc., Woburn Mass.) was used to determine the ability of compounds of the invention to cross an artificial lipid membrane by passive diffusion. Test compounds were dissolved in DMSO (10 mM) and diluted 200-fold in buffer (pION Inc., pH 7.4) to provide 50 uM stock solutions. Buffer (150 μL) was added to a UV blank plate and stock solutions (150 μL) were transferred to a UV reference plate. The blank and reference spectrum were read using a spectrophotometer. Stock solutions (200 μL) were added to the donor plate of the PAMPA sandwich plate and an accept plate painted with GIT lipid (pION Inc, 5 μL) was placed on top. Buffer (200 μL) was added to the acceptor plate and the PAMPA sandwich plate was incubated for 4 hours. Aliquots (150 μL) from the acceptor plate were added to a UV plate and read as acceptor spectrum. Aliquots (150 μL) of the donor solutions were added to a UV analysis plate and read as donor spectrum. The permeability coefficient of test compounds was calculated using PAMPA Explorer™ software (version 3.5.0.4) based on the AUC of the reference plate, the donor plate, and the acceptor plate.

NaV1.7 [3] = target: T1, NaV1.7; assay: Nav1.7 intracellular inhibition, whole cell patch clamp (internal block); type: cell-based; conditions: compound in internal solution; for inhibition at 10 µM: test concentration of 10 μM
Experimental: as §1, §2, §3
Once the recording was started, the voltage protocol was run at 30 second intervals for 5 minutes to get a stable baseline. This was followed by four 30-second periods of 5 Hz stimulation of the same voltage protocol separated by 1 minute of rest which was then followed by 0.33 Hz stimulation after the last train. Currents were recorded using PatchMaster software with Heka EPC10 (HEKA Electronics, Lambrecht, Germany). Only cells with inward current amplitudes at −20 mV between 400 pA and 4 nA were accepted. In addition, cells having leak currents greater than 10% of their current amplitudes were discarded.
The data was plotted using the Patchmaster software (HEKA Electronics, Lambrecht, Germany) and analyzed by plotting the minimum current during the voltage step to −20 mV (peak inward current) as a function of time. […]

SMILES	inhibition at 10 µM (NaV1.7 [1]) [%]	PAMPA (10^−6cm/s) [2]	inhibition at 3 µM (NaV1.7 [3]) [%]	inhibition at 30 µM (NaV1.7 [1]) [%]	Papp at 4 h, 50 µM [2] [×10⁻⁶ cm/s]	inhibition at 10 µM (NaV1.7 [3]) [%]
Cc1cccc(C(=O)OC(C)(C)C)c1NC(=O)C[n+]1cccn1C1CCCCC1.[Br-] [D]	< 40	+ ((<0.1 10^−6 cm/s))	70 to 90			
CCCOC(=O)c1scc(C)c1NC(=O)C[n+]1cccn1C1CCCCC1.[Br-] [B]	< 40	+ ((<0.1 10^−6 cm/s))	> 90			
CCOC(=O)c1scc(C)c1NC(=O)C[n+]1cccn1C1CCCCC1 [C]	< 40	+ ((<0.1 10^−6 cm/s))	70 to 90			
COC(=O)c1scc(C)c1NC(=O)C[n+]1cccc(-c2ccccc2)c1 [Compound 23]	< 40	+ ((<0.1 10^−6 cm/s))	40 to 70	< 30	< 1	> 70
COC(=O)c1scc(C)c1NC(=O)C[n+]1cccn1C1CCCCC1 [Compound 22]	< 40	+ ((<0.1 10^−6 cm/s))	40 to 70	< 30	< 1	> 70
Cc1csc(C(=O)OC(C)(C)C)c1NC(=O)C[n+]1cccc(-c2ccccc2)c1.[Br-] [A]	40 to 70	+ ((<0.1 10^−6 cm/s))	70 to 90			
